Measurements reported in the supplement of paper PMC11208160.

Assay: recombinant barcode read abundance after kanamycin selection (control-corrected) (log10(CPM+1)); higher = more efficient recombination; sequences stand for … in AGTGCAGAGAAAATCGGCCAGTTTTCTCTGCCTGCAGTCCGCATGCCGT…AGATTTATGCAGCGGACTGCCTTTCTCCCAAAGTGATAAACCGGACAGTATCATGGACCGGTTTTCCCGGTAATCCGTATTTGCAAGGTTGGTTTCACT; site = the 11-nt target
Protocol: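 Pooled E. coli target-specificity screen for the IS621 bridge recombinase. Each library plasmid pairs an 11-nt target (CT core) with a bridge RNA whose target-binding loop (9-nt LTG + 4-nt RTG) is reprogrammed; the rest of the 177-nt WT IS621 bridge RNA scaffold is fixed. The plasmid is co-electroporated with a WT donor plasmid; recombinase is induced with 0.1 mM IPTG and recombinants are selected on kanamycin. Recombinant barcodes are sequenced, converted to CPM, averaged over two biological replicates and corrected by the unselected control CPM. Molecule = full bridge RNA written as DNA: LTG = specificity nt 1-9, RTG = reverse complement of specificity nt 8-11, in the WT scaffold.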
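Note: IS621 recombinase and bridge RNA in Escherichia coli cells.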

Sequence	recombinant barcode read abundance (log10)
AGCCTTACTTGGGTTCTAACCTGTTGCCT (site AACCTTACTAG)	0.106
AGCCTTACTTGGGTTCTAACCTGTTGCCT (site ACCCTTACTAG)	0.275
AGCCTTACTTGGGTTCTAACCTGTTGCCT (site AGCCTTACTAG)	0.171
AGCCTTACTTGGGTTCTAACCTGTTGCCT (site ATCCTTACTAG)	0.122
AGCCTTGCTTGGGTTCTAACCTGTTGCCT (site AGCATTGCTAG)	0.0195
AGCCTTGCTTGGGTTCTAACCTGTTGCCT (site AGCCTTGCTAG)	0.7
AGCCTTGCTTGGGTTCTAACCTGTTGCCT (site AGCGTTGCTAG)	0.566
AGCCTTGCTTGGGTTCTAACCTGTTGCCT (site AGCTTTGCTAG)	0.167
AGCGAAGCTTGGGTTCTAACCTGTTGCCT (site AGCGAAGCTAG)	0.382
AGCGAAGCTTGGGTTCTAACCTGTTGCCT (site AGCGAGGCTAG)	0.3
AGCGAATCTTGGGTTCTAACCTGTTGCCT (site AGAGAATCTAG)	0.0521
AGCGAATCTTGGGTTCTAACCTGTTGCCT (site AGCGAATCTAG)	0.719
AGCGAATCTTGGGTTCTAACCTGTTGCCT (site AGGGAATCTAG)	0.323
AGCGAATCTTGGGTTCTAACCTGTTGCCT (site AGTGAATCTAG)	0.158
AGCGACCCTTGGGTTCTAACCTGTTGCGT (site AGCGACCCTAC)	3.18
AGCGACCCTTGGGTTCTAACCTGTTGCGT (site CGCGATCCTAC)	0.16
AGCGAGTCTTGGGTTCTAACCTGTTGCCT (site AACGAGTCTAG)	0.951
AGCGAGTCTTGGGTTCTAACCTGTTGCCT (site ACCGAGTCTAG)	0.817
AGCGAGTCTTGGGTTCTAACCTGTTGCCT (site AGCGAGTCTAG)	2.08
AGCGAGTCTTGGGTTCTAACCTGTTGCCT (site ATCGAGTCTAG)	0.465
AGCGCTACTTGGGTTCTAACCTGTTGCCT (site ACCGCTACTAG)	0.121

Sequence	recombinant barcode read abundance (log10)
AGCGCTACTTGGGTTCTAACCTGTTGCCT (site AGCGCTACTAG)	0.145
AGCTAACCTTGGGTTCTAACCTGTTGCCT (site AGCTAACCTAG)	0.407
AGCTAACCTTGGGTTCTAACCTGTTGCCT (site AGTGAACCTAG)	0.127
AGCTACCCTTGGGTTCTAACCTGTTGCTT (site ACCTACTCTAA)	0.0582
AGCTACCCTTGGGTTCTAACCTGTTGCTT (site AGCTACCCTAA)	0.62
AGCTCCTCTTGGGTTCTAACCTGTTGCCT (site AGCTCCTCTAG)	0.0883
AGCTCCTCTTGGGTTCTAACCTGTTGCCT (site CGCTCCTCTAG)	0.144
AGCTCCTCTTGGGTTCTAACCTGTTGCCT (site GGCTCCTCTAG)	0.0482
AGCTCCTCTTGGGTTCTAACCTGTTGCCT (site TGCTCCTCTAG)	0.0453
AGCTCGTCTTGGGTTCTAACCTGTTGCGG (site AGCTCGTCTCC)	0.448
AGCTCGTCTTGGGTTCTAACCTGTTGCGG (site AGTTCGTCTCG)	0.191
AGCTGGGCTTGGGTTCTAACCTGTTGCCT (site AACTGGGCTAG)	0.0885
AGCTGGGCTTGGGTTCTAACCTGTTGCCT (site ACCTGGGCTAG)	0.101
AGCTGGGCTTGGGTTCTAACCTGTTGCCT (site AGCTGGGCTAG)	0.235
AGCTGGGCTTGGGTTCTAACCTGTTGCCT (site ATCTGGGCTAG)	0.11
AGCTTATCTTGGGTTCTAACCTGTTGCCT (site AGCTAAACTAG)	0.131
AGCTTATCTTGGGTTCTAACCTGTTGCCT (site AGCTTATCTAG)	0.179
AGGAACACTTGGGTTCTAACCTGTTGCTT (site AGGAACACTAA)	1.56
AGGAACACTTGGGTTCTAACCTGTTGCTT (site AGGAACACTCA)	0.279
AGGAACCCTTGGGTTCTAACCTGTTGCTT (site AGGAACCCTAA)	0.911
AGGAACCCTTGGGTTCTAACCTGTTGCTT (site AGGAACCCTCA)	0.328

Sequence	recombinant barcode read abundance (log10)
AGGAACCCTTGGGTTCTAACCTGTTGCTT (site AGGAACCCTGA)	0.127
AGGAACCCTTGGGTTCTAACCTGTTGCTT (site AGGAACCCTTA)	0.256
AGGAAGACTTGGGTTCTAACCTGTTGCGG (site AGGAAGACTCC)	3.01
AGGAAGACTTGGGTTCTAACCTGTTGCGG (site AGGAAGACTCG)	0.25
AGGAAGGCTTGGGTTCTAACCTGTTGCCA (site AGGAAGGCTTG)	0.693
AGGAAGGCTTGGGTTCTAACCTGTTGCCA (site GACGTAACTCT)	0.145
AGGACTACTTGGGTTCTAACCTGTTGCCT (site AGAACTACTAG)	0.217
AGGACTACTTGGGTTCTAACCTGTTGCCT (site AGGACTACTAG)	1.3
AGGAGAGCTTGGGTTCTAACCTGTTGCTT (site AGGAGAGCTAA)	1.13
AGGAGAGCTTGGGTTCTAACCTGTTGCTT (site CTAGCGACTGT)	0.0392
AGGAGCCCTTGGGTTCTAACCTGTTGCCA (site AGGAGCCCTAG)	0.408
AGGAGCCCTTGGGTTCTAACCTGTTGCCA (site AGGAGCCCTTG)	0.841
AGGAGCCCTTGGGTTCTAACCTGTTGCTA (site AGGAGCCCTAA)	0.0121
AGGAGCCCTTGGGTTCTAACCTGTTGCTA (site AGGAGCCCTCA)	0.165
AGGAGCCCTTGGGTTCTAACCTGTTGCTA (site AGGAGCCCTGA)	0.0798
AGGAGCCCTTGGGTTCTAACCTGTTGCTA (site AGGAGCCCTTA)	1.38
AGGATAGCTTGGGTTCTAACCTGTTGCGG (site AGGATAGCTCC)	2.18
AGGATAGCTTGGGTTCTAACCTGTTGCGG (site AGTCTAGCTCC)	0.102
AGGATAGCTTGGGTTCTAACCTGTTGCTG (site AGAATAGCTCT)	0.148
AGGATAGCTTGGGTTCTAACCTGTTGCTG (site AGGATAGCTCA)	1.45
AGGATCCCTTGGGTTCTAACCTGTTGCAG (site AGGATCCCTAT)	0.701

Sequence	recombinant barcode read abundance (log10)
AGGATCCCTTGGGTTCTAACCTGTTGCAG (site AGGATCCCTCT)	2.31
AGGCCCGCTTGGGTTCTAACCTGTTGCGG (site AGGCCCGCTCC)	0.794
AGGCCCGCTTGGGTTCTAACCTGTTGCGG (site GTAAGATCTGT)	0.186
AGGCGCCCTTGGGTTCTAACCTGTTGCAG (site AGGCGCCCTAT)	0.185
AGGCGCCCTTGGGTTCTAACCTGTTGCAG (site AGGCGCCCTCT)	1.4
AGGCGCCCTTGGGTTCTAACCTGTTGCAG (site AGGCGCCCTGT)	0.0789
AGGCGCCCTTGGGTTCTAACCTGTTGCAG (site AGGCGCCCTTT)	0.122
AGGCGTCCTTGGGTTCTAACCTGTTGCCC (site AGGCGTCCTAG)	0.417
AGGCGTCCTTGGGTTCTAACCTGTTGCCC (site AGGCGTCCTCG)	0.0817
AGGCGTCCTTGGGTTCTAACCTGTTGCCC (site AGGCGTCCTGG)	1.78
AGGCGTCCTTGGGTTCTAACCTGTTGCCC (site AGGCGTCCTTG)	0.211
AGGCTGCCTTGGGTTCTAACCTGTTGCCT (site AGGCTGACTAG)	0.126
AGGCTGCCTTGGGTTCTAACCTGTTGCCT (site AGGCTGCCTAG)	0.867
AGGCTGCCTTGGGTTCTAACCTGTTGCCT (site AGGCTGGCTAG)	0.0502
AGGCTGCCTTGGGTTCTAACCTGTTGCCT (site AGGCTGTCTAG)	0.494
AGGCTGGCTTGGGTTCTAACCTGTTGCCT (site AGGCTGACTAG)	0.511
AGGCTGGCTTGGGTTCTAACCTGTTGCCT (site AGGCTGCCTAG)	0.0205
AGGCTGGCTTGGGTTCTAACCTGTTGCCT (site AGGCTGGCTAG)	0.482
AGGCTGGCTTGGGTTCTAACCTGTTGCCT (site AGGCTGTCTAG)	0.166
